Experimental data: article PMC5142613 (The Biochemical journal, 2015)
“Also recorded” adds a separate entry of the source.

Key:
ATAD2A bromodomain [1] = assay: DiscoveRx competitive displacement assay; type: binding; settings: orthogonal assay; as previously described [22]
ATAD2A bromodomain [2] = target: T1, ATAD2A bromodomain (Homo sapiens, UniProt Q6PL18); assay: ATAD2A AlphaScreen assay; type: binding; settings: for Displacement of histone peptide by small molecule: titration upon H4K5Ac peptide competition, Supplementary Fig. 3b
T1 sequence (Q6PL18 980-1092 limits assumed): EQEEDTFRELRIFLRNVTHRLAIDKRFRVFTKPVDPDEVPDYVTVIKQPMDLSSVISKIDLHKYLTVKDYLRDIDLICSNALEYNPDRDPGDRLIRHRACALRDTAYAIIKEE

ATAD2A bromodomain [3] = target: T1, ATAD2A bromodomain; assay: X-ray co-crystallography of ATAD2A complexes; type: binding; settings: for Binding site / binding mode in crystal structure: co-crystal structure with ATAD2A bromodomain; for Conformational form of ATAD2A in the complex: co-crystal structure, ZA loop position relative to PDB 3DAI
ATAD2A bromodomain [4] = settings: human cells (H3K14ac listed second, "respectively"); ref [7], [30]; cited from earlier work
ATAD2A bromodomain [5] = settings: ref [24]; cited from earlier work

Row | Molecule | Affinity in DiscoveRx competitive displacement assay (ATAD2A bromodomain [1]) | Displacement of histone peptide by small molecule (ATAD2A bromodomain [2]) | Binding site / binding mode in crystal structure (ATAD2A bromodomain [3]) | Conformational form of ATAD2A in the complex (ATAD2A bromodomain [3]) | Binding measured in vitro, compound 2 versus compound 1 (ATAD2A bromodomain [2]; Fig. 5a, IC50 and Kd (AlphaScreen and DiscoveRx), comparison with compound 1) | Response of acetylated histone peptide in AlphaScreen panel (ATAD2A bromodomain [2]; direct binding of biotinylated peptide to His-ATAD2A, chemiluminescent readout) | Histone interaction by co-immunoprecipitation, human cells (ATAD2A bromodomain [4]) | Interaction in panning of histone peptide panels by peptide array (ATAD2A bromodomain [5])
1 | CCOC(=O)Nc1cc(-c2ccc(C)c(NS(C)(=O)=O)c2)nn2c(C)nnc12 [Bromosporine, reference compound] | high μM | displaced |  |  |  |  |  | 
2 | COC(=O)c1cc(NS(=O)(=O)c2ccccc2)cc(-c2c(C)noc2C)c1 [compound 1, Methyl 3-(3,5-dimethylisoxazol-4-yl)-5-(phenylsulfonamido)benzoate] | high μM | displaced | acetyllysine mimetic binding mode | open form |  |  |  | 
3 | Cc1noc(C)c1-c1cc(NS(=O)(=O)c2ccccc2)cc(C(=O)O)c1 [compound 2, 3-(3,5-Dimethylisoxazol-4-yl)-5-(phenylsulfonamido)benzoic acid] | high μM | displaced | acetyllysine mimetic binding mode | open form | weaker binding |  |  | 
4 | ARTKQTARKSTGGK(Ac)APRKQLAGGK [H3K14ac, reference compound] |  |  | interacts along the end of αC helix, far from the acetyllysine binding site; also recorded: binds non-specifically |  |  | did not respond | histone interactions have been reported | have not been confirmed
